Reference: US6642003B2, “Human glucose-dependent insulin-secreting cell line” (Cedars-Sinai Medical Center, priority 2001, dated 2003)

Columns and labels:
ARIP cells [1] = assay: Insulin release into culture medium (RIA), ARIP cells; format: cell-based, rat
Experimental: Rat (ARIP) and human (PANC-1) ductal cell lines were respectively a gift from Dr. J. M. Egan (National Institute on Aging, Baltimore, Md.) or purchased from ATCC (American Type Culture Collection; Manassas, Va.). ARIP cells were cultured in F12 medium (Gibco-BRL, Gaithersburg; Md.) containing 100 μg/ml penicillin, 50 μg/ml streptomycin and 10% fetal calf serum (FCS; Gibco-BRL) at 37° C. under a humidified condition of 95% air and 5% CO2. PANC-1 cells were cultured in DMEM medium supplemented with antibiotics and FCS, as indicated for F12 medium. Treatment with human GLP-1 (H-6795, Bachem; King of Prussia, Pa.) was carried out using cells grown to 80% of confluence, after washing the cell layer with serum-free medium and a “wash-out” incubation for 6-h with serum free medium. To determine dose response to GLP-1, cells were cultured with fresh serum-free medium containing increasing concentration of GLP-1 (0.1, 1, 10, 20 nM), or vehicle alone. At the completion of the experiment, media and cells were collected. To determine the time course of response, cells were cultured in serum-free medium with GLP-1 (10 nM) for 0, 12, 24, 48, 72 or 96 h. Control dishes were cultured with vehicle alone, or with the peptide receptor antagonist of GLP-1, Exendin-9 (100 nM) for 72 h (gift Dr. J. M. Egan). The glucose concentration in the culture medium was 12 mM for both cell lines.
PANC-1 (parental, IDX-1-transfected, and neomycin-transfected) cells and ARIP (only parental) cells were plated at density of 10^6 cells/well in a 6 well plate. Once the cells reached 80% of confluence, they were washed with serum-free medium containing 12 mM glucose and exposed to fresh serum-free medium for increasing length of time (0, 12, 24, 48, 72, 96 h) in the presence of various concentrations of GLP-1 (0.1, 1, 10, 20 nM) or vehicle. Glucose-dependent insulin secretion was evaluated by culturing the cells in the presence of a determined concentration of GLP-1 (10 nM for 72 h) with increasing concentration of glucose in the culture medium ([…]). Insulin released into the medium was measured by RIA (Linco Research Inc.; St. Charles, Mass.). Total insulin accumulation in the culture medium was then normalized for total cellular protein content per each Individual cultures.
(§1) Total cellular protein content was measured by utilizing the Bradford method (Bio-Rad; Richmond, Calif.). The amount of proteins measured was used as a correction factor for determining the relative amount of medium to be assayed for each individual RIA for insulin.

ARIP cells [2] = assay: RT-PCR of islet β-cell specific transcripts, ARIP cells; format: cell-based, rat
Experimental: After the treatment of ARIP and PANC-1 cells with GLP-1, Exendin-9, or vehicle, for the described length of time and the various doses, the culture medium was removed and the cells were washed (twice) with serum-free medium. Total RNA was isolated using the TRiazol-method (Gibco-BRL), and treated with DNase (Amplification Grade, GibcoBRL) in 20 mmol/l Tris-HCL (pH 8.4), 2 mmol/l MgCl2, and 50 mmol/l KCl to remove any traces of contaminating genomic DNA. RNA (2.5 μg) was then subjected to reverse transcription (RT reagents; Promega; Madison, Wis.). RT-PCR was undertaken in a volume of 50 μl of buffer containing 50 mmol/l KCl, 10 mmol/l Tris-HCl, 3.5 mmol/l MgCl2, 200 μmol/l each dNTPs, and 0.4 μmol/l each of sense and antisense primers to rat or human insulin (depending on the specific cell from which the RNA was extracted). Amplification was performed for 30 cycles at the denaturing temperature of 94° C. for 1 min, annealing temperature of 60° C. for 45 sec, and an extension temperature of 72° C. for 1 min. […] These included more irregular and variable cell shapes, with a cytoplasm less homogenous and “rougher” in appearance than control culture.
Treatment with GLP-1 induces the differentiation of ductal epithelial cells into insulin-producing cells. FIG. 2 illustrates a series of cell cultures grown with or without GLP-1 (10 nM) for 72 h. […] Preabsorption of the antibody with an excess of human recombinant insulin prevented the staining of insulin-positive GLP-1 treated cells (data not shown). While treatment with GLP-1 turned the majority of ARIP cells into […] For β-actin, the annealing temperature was raised to 64° C. for 1 min and gene-specific primers were used. For GLP-1-receptor (GLP-R) the annealing temperature used was 55° C. All other experimental conditions to amplify GLUT2, glucokinase, and GLP-R mRNAs were identical to those described for the amplification of insulin mRNA. RT and PCR conditions for human transcripts were identical to those described for rat mRNAs.
Southern blotting with species-specific full length cDNA probes for insulin, GLUT-2, glucokinase, GLP-1 receptor and β-actin was performed as previously described. Y. Wang, R. Perfetti, N. H. Greig, H. W. Holloway, K. A. DeOre, C. Montrose-Rafizadeh, D. Elahi, J. M. Egan, “Glucagon-like peptide-1 can reverse the age-related decline in glucose tolerance in rats.” J Clin Invest 99:2883-2889, 1997.

PANC-1 cells = assay: Insulin release into culture medium (RIA), parental PANC-1 cells; format: cell-based, human
Experimental: Rat (ARIP) and human (PANC-1) ductal cell lines were respectively a gift from Dr. J. M. Egan (National Institute on Aging, Baltimore, Md.) or purchased from ATCC (American Type Culture Collection; Manassas, Va.). ARIP cells were cultured in F12 medium (Gibco-BRL, Gaithersburg; Md.) containing 100 μg/ml penicillin, 50 μg/ml streptomycin and 10% fetal calf serum (FCS; Gibco-BRL) at 37° C. under a humidified condition of 95% air and 5% CO2. PANC-1 cells were cultured in DMEM medium supplemented with antibiotics and FCS, as indicated for F12 medium. […]
PANC-1 (parental, IDX-1-transfected, and neomycin-transfected) cells and ARIP (only parental) cells were plated at density of 10^6 cells/well in a 6 well plate. […] Glucose-dependent insulin secretion was evaluated by culturing the cells in the presence of a determined concentration of GLP-1 (10 nM for 72 h) with increasing concentration of glucose in the culture medium ([…]). Insulin released into the medium was measured by RIA (Linco Research Inc.; St. Charles, Mass.). […]
as §1

[3] = serum-free medium, 12 mM glucose, 72 h

glucagon-like peptide-1 [GLP-1] was tested, and the “lowest concentration of glucose required to induce the secretion of insulin” value (ARIP cells [1]; GLP-1 10 nM for 72 h) was 3 mM, the “glucose dependence of insulin release” value (ARIP cells [1]; GLP-1 10 nM for 72 h, increasing glucose) was “release insulin in a glucose-dependent manner” and the “time of maximal insulin secretion” value (ARIP cells [1]; GLP-1 10 nM, 12 mM glucose) was 48 h. The “time of plateau of insulin secretion” value (ARIP cells [1]; GLP-1 10 nM, 12 mM glucose) was 72 h, the “GLP-1 concentration at plateau of insulin accumulation in the culture medium” value (ARIP cells [1]; [3]) was 20 nM and the “minimum concentration of GLP-1 required to transform ARIP ductal cells into insulin producing cells” value (ARIP cells [1]; [3]) was 1 nM. The “time of first detection of GLUT2 mRNA” value (ARIP cells [2]; GLP-1 10 nM) was 24 h, the “time of first detection of glucokinase mRNA” value (ARIP cells [2]; GLP-1 10 nM) was 72 h and the “time of first detection of insulin mRNA” value (ARIP cells [2]; GLP-1 10 nM) was 48 h. The “lowest concentration of GLP-1 required for the initial detection of insulin mRNA” value (ARIP cells [2]; data not shown) was 1 nM, the “insulin secretion in response to GLP-1” value (PANC-1 cells; parental PANC-1, 12 mM glucose, various GLP-1 concentrations) was “did not secrete insulin” and the “insulin secretory response with increasing glucose” value (PANC-1 cells; wild-type PANC-1, GLP-1 10 nM for 72 h, data not shown) was “No insulin secretory response”.
